Here are results for two compounds from ChEMBL document CHEMBL3044635, “Effect of propiconazole and difenoconazole on the control of anthracnose of chilli fruits caused by Colletotrichum capsici” (Crop Prot, 2006).

In brackets after ≈: the same amount, converted by molar mass.

Data set [1] relates to Colletotrichum truncatum. The experiment in a line: Fungicidal activity against Colletotrichum capsici assessed as reduction of polygalacturonase trans-eliminase production at 1 ug/ml incubated for 10 days measured up to 120 min by Ostwald-Fenske viscometric analysis (reference value: 40.8%). Type of data set: functional. Set-up: scale not given: the % may be the effect or the level left.

The test system of data set [2] is Colletotrichum truncatum. Nature of the data set: Fungicidal activity against Colletotrichum capsici assessed as inhibition of mycelial growth. Type of data set: functional. The following applies: Colletotrichum truncatum; read-out: ED50 (the source's name).
Data set [3] relates to Colletotrichum truncatum. Nature of the data set: Fungicidal activity against Colletotrichum capsici assessed as sporulation at 10 ug/ml incubated 16 hr photoperiod for 20 days by haemocytometer (reference value: 0.081 x 10^6 ml'-1). Type of data set: functional.
In data set [4] the test system is Colletotrichum truncatum. The experiment in a line: Fungicidal activity against Colletotrichum capsici assessed as spore germination at 5 ug/ml after 48 to 96 hr (reference value: 70.2 CFU). Type of data set: functional.
Data set [5] relates to Colletotrichum truncatum. The experiment in a line: Fungicidal activity against Colletotrichum capsici assessed as inhibition of spore germination at 0.1 ug/ml after 48 to 96 hr relative to control. Type of data set: functional.
The subject of data set [6] is Colletotrichum truncatum. The experiment in a line: Fungicidal activity against Colletotrichum capsici assessed as mycelial biomass at 50 ug/ml incubated 16 hr photoperiod for 20 days (reference value: 675 mg). Type of data set: functional.
In data set [7] the test system is Colletotrichum truncatum. Nature of the data set: Fungicidal activity against Colletotrichum capsici assessed as mycelial biomass at 1 ug/ml incubated 16 hr photoperiod for 20 days (reference value: 675 mg). Type of data set: functional.
Data set [8] concerns Colletotrichum truncatum. Nature of the data set: Fungicidal activity against Colletotrichum capsici assessed as mycelial biomass at 0.5 ug/ml incubated 16 hr photoperiod for 20 days (reference value: 675 mg). Type of data set: functional.
The test system of data set [9] is Colletotrichum truncatum. The experiment in a line: Fungicidal activity against Colletotrichum capsici assessed as mycelial biomass at 0.1 ug/ml incubated 16 hr photoperiod for 20 days (reference value: 675 mg). Type of data set: functional.
Data set [10] relates to Colletotrichum truncatum. Nature of the data set: Fungicidal activity against Colletotrichum capsici assessed as linear growth at 50 ug/ml incubated 16 hr photoperiod for 20 days (reference value: 90 mm). Type of data set: functional.
In data set [11] the test system is Capsicum annuum. Nature of the data set: Phytotoxicity in Capsicum annuum (pepper) at 0.1% applied as spray. Type of data set: organism-based. Particulars: in vivo, other.
The test system of data set [12] is Capsicum annuum. The experiment in a line: Phytotoxicity in Capsicum annuum (pepper) at 0.05% applied as spray. Type of data set: organism-based. Particulars: in vivo, other.
Data set [13] deals with Colletotrichum truncatum. The experiment in a line: Fungicidal activity against Colletotrichum capsici infected chilli plant assessed as fruit yield measured per plot at 0.025% applied as spray on day 10 post inoculation and twice every 20 days measured on day 155 post sowing in field conditions (reference value: 8.25 to 9.3 kg). Type of data set: functional.
Another data set has as its system Puccinia allii. Nature of the data set: Fungicidal activity against Puccinia allii assessed as inhibition of spore germination. Type of data set: functional.
In data set [14] the test system is Colletotrichum truncatum. Nature of the data set: Fungicidal activity against Colletotrichum capsici assessed as spore germination at 5 ug/ml after 48 to 96 hr relative to control. Type of data set: functional.
In data set [15] the test system is Colletotrichum truncatum. The experiment in a line: Fungicidal activity against Colletotrichum capsici infected chilli plant assessed as fruit length at 0.1% applied as spray on day 10 post inoculation and twice every 20 days measured on day 155 post sowing in green house conditions (reference value: 6.8 to 7 cm). Type of data set: functional.
Data set [16] concerns Colletotrichum truncatum. Nature of the data set: Fungicidal activity against Colletotrichum capsici infected chilli plant assessed as fruit mass measured per pot at 0.1% applied as spray on day 10 post inoculation and twice every 20 days measured on day 155 post sowing in green house conditions (reference value: 85.3 to 94.5 g). Type of data set: functional.
The subject of data set [17] is Colletotrichum truncatum. Nature of the data set: Fungicidal activity against Colletotrichum capsici infected chilli plant assessed as percent disease index at 0.1% applied as spray on day 10 post inoculation and twice every 20 days measured on day 155 post sowing in green house conditions (reference value: 62.5 to 68.6%). Type of data set: functional.
For data set [18], the system named is Colletotrichum truncatum. The experiment in a line: Fungicidal activity against Colletotrichum capsici infected chilli plant assessed as fruit length measured per plot at 0.1% applied as spray on day 10 post inoculation and twice every 20 days measured on day 155 post sowing in field conditions (reference value: 8 to 8.7 cm). Type of data set: functional.
Data set [19] has as its system Colletotrichum truncatum. The experiment in a line: Fungicidal activity against Colletotrichum capsici infected chilli plant assessed as fruit yield measured per plot at 0.1% applied as spray on day 10 post inoculation and twice every 20 days measured on day 155 post sowing in field conditions (reference value: 8.25 to 9.3 kg). Type of data set: functional.
Data set [20] relates to Colletotrichum truncatum. Nature of the data set: Fungicidal activity against Colletotrichum capsici infected chilli plant assessed as percent disease index at 0.1% applied as spray on day 10 post inoculation and twice every 20 days measured on day 155 post sowing in field conditions (reference value: 51 to 56.5%). Type of data set: functional.

With `CC1COC(Cn2cncn2)(c2ccc(Oc3ccc(Cl)cc3)cc2Cl)O1` (configuration not stated) [DIFENOCONAZOLE], the Activity with Colletotrichum truncatum [1] was 12.5%; in the data set with Colletotrichum truncatum [3], 0 ×10⁶ /ml; in the data set on Colletotrichum truncatum [6], 0 mg; with Colletotrichum truncatum [7] it was 243 mg; in the data set with Colletotrichum truncatum [8], 350 mg; in the data set on Colletotrichum truncatum [9], 465 mg. For the same compound, the figures for the Activity in the data set on Colletotrichum truncatum [10], with Capsicum annuum [11] and in the data set on Capsicum annuum [12] were 9 mm, “Toxic” and “Non-toxic”, respectively. Moreover, in the data set with Colletotrichum truncatum [2], the EC50 was found to be 0.15 µg/mL (≈ 0.369 µM). Also, the CFU in the data set with Colletotrichum truncatum [4] was 4.1. The inhibition at 0.1 µg/mL in the data set with Colletotrichum truncatum [5] was 40%. In the data set on Colletotrichum truncatum [13], the Crop_yield came to 9.1 kg.

With `CCCC1COC(Cn2cncn2)(c2ccc(Cl)cc2Cl)O1` (configuration not stated) [PROPICONAZOLE], the Activity with Colletotrichum truncatum [1] came to 8.5%; with Colletotrichum truncatum [3], 0 ×10⁶ /ml; in the data set with Colletotrichum truncatum [14], 0%; in the data set on Colletotrichum truncatum [6] it was 0 mg; in the data set with Colletotrichum truncatum [7], 129 mg; with Colletotrichum truncatum [8], 240 mg. The Activity in the data set on Colletotrichum truncatum [9] was 410 mg; in the data set with Colletotrichum truncatum [10], 9 mm; in the data set on Colletotrichum truncatum [15], 8 cm; with Capsicum annuum [11] it was “Non-toxic”; in the data set on Colletotrichum truncatum [18], 10.2 cm. The MIC in the data set on Puccinia allii was 50 µg/mL (≈ 146 µM). Moreover, in the data set on Colletotrichum truncatum [2], the EC50 was 0.19 µg/mL (≈ 0.555 µM). In addition, in the data set with Colletotrichum truncatum [5], the inhibition at 0.1 µg/mL turned out to be 62%. For the same compound, the Crop_yield in the data set with Colletotrichum truncatum [16] is 165.6 g; with Colletotrichum truncatum [13], 9.86 kg; in the data set on Colletotrichum truncatum [19], 17.5 kg. In addition, the PDI in the data set on Colletotrichum truncatum [17] turned out to be 17.5%; in the data set with Colletotrichum truncatum [20], 13.5%.

In general, inhibition refers to the share of the control response that was lost under treatment. Usually MIC stands for the smallest concentration in the dilution series that meets the test's criterion for growth inhibition.
